The values that follow come from patent US7425557B2, “Inhibitors of glycogen synthase kinase 3” (Novartis Vaccines and Diagnostics, Inc., priority 1998, dated 2008).

Molecules are shown by their SMILES.

The target of the first data set is human GSK3β (Homo sapiens, UniProt P49841). Briefly: Screening for GSK3 inhibitory activity using a cell-free assay. The class given is biochemical. Particulars: read-out: IC50 with respect to GSK3. In short, it runs like this: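 Radiometric cell-free assay with recombinant human GSK3β phosphorylating a biotinylated peptide substrate for 3 h. Reactions were stopped with 50 μM ATP/20 mM EDTA and captured on streptavidin plates. Incorporated radiolabel was counted by scintillation and plotted against compound concentration.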
human GSK3β, sequence (P49841 whole entry): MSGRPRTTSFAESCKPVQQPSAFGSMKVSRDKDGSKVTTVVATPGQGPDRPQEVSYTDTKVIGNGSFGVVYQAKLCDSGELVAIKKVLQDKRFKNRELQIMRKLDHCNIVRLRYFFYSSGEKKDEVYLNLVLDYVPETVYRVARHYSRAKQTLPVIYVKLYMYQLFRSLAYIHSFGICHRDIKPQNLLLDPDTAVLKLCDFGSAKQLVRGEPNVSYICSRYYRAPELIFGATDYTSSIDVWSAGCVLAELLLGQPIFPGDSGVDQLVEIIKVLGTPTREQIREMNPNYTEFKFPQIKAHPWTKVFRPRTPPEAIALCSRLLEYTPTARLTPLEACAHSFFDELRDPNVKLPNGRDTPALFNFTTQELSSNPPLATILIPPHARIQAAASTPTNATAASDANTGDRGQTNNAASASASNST
By IC50 is commonly meant the midpoint of a concentration-inhibition curve. With `O=[N+]([O-])c1ccc(NCCNc2nccc(-c3ccc(N4CCOCC4)cc3)n2)nc1` [[4-(4-morpholin-4-ylphenyl)-pyrimidin-2-yl]{2-[(5-nitro(2-pyridyl))amino]ethyl}amine], the IC50 was at most 1000 nM.

Turning to `Cc1c[nH]c(-c2cnc(NCCNc3ccc([N+](=O)[O-])cn3)nc2-c2ccc(Cl)cc2Cl)n1` [[4-(2,4-dichlorophenyl)-5-(4-methylimidazol-2-yl)pyrimidin-2-yl]{2-[(5-nitro(2-pyridyl))amino]ethyl}amine], the IC50 is at most 1000 nM.

For `CCc1ccc(-c2nc(NCCNc3ccc(C#N)cn3)ccc2N2CCN(C)CC2=O)cc1` [6-[(2-{[6-(4-ethylphenyl)-5-(4-methyl-2-oxo-1-piperazinyl)-2-pyridinyl]amino}ethyl)amino]nicotinonitrile], the half-inhibitory concentration (IC50) was at most 10000 nM.

With `CCOC(=O)c1cnc(NCCNc2ccc([N+](=O)[O-])cn2)nc1-c1ccc(CC)cc1` [ethyl 4-(4-ethylphenyl)-2-({2-[(5-nitro(2-pyridyl))amino]ethyl}amino)pyrimidine-5-carboxylate], the IC50 was at most 1000 nM.

In the case of `O=[N+]([O-])c1ccc(NCCNc2nccc(-c3ccc(-c4nc(Cl)c(Cl)[nH]4)cc3)n2)nc1` [{4-[4-(4,5-dichloroimidazol-2-yl)phenyl]-pyrimidin-2-yl}{2-[(5-nitro(2-pyridyl))amino]ethyl}amine], the half-maximal inhibitory concentration (IC50) is at most 10000 nM.

With `CN(C)CCN(C)C(=O)c1cnc(NCCNc2ccc([N+](=O)[O-])cn2)nc1-c1ccc(C#N)cc1` [N-[2-(dimethylamino)ethyl][4-(4-cyanophenyl)-2-({2-[(5-nitro(2-pyridyl))amino]ethyl}amino)pyrimidin-5-yl]-N-methylcarboxamide], the half-maximal inhibitory concentration (IC50) is at most 1000 nM.

`NC(=O)c1ccc(-c2ccnc(NCCCOc3cccc(C(F)(F)F)c3)n2)cc1` [4-[2-({3-[3-(trifluoromethyl)phenoxy]propyl}amino)pyrimidin-4-yl]benzamide]: the IC50 was at most 1000 nM.

For the compound `COc1ccccc1-c1nc(NCCNc2ccc([N+](=O)[O-])cn2)ncc1C(=O)O` [4-(2-methoxyphenyl)-2-({2-[(5-nitro(2-pyridyl))amino]ethyl}amino)pyrimidine-5-carboxylic acid], the concentration for half-maximal inhibition (IC50) was at most 10000 nM.

In the case of `N#Cc1ccc(-c2nc(NCCNc3ccc([N+](=O)[O-])cn3)ncc2NCc2ccccc2)cc1` [4-[2-({2-[(5-nitro(2-pyridyl))amino]ethyl}amino)-5-[benzylamino]pyrimidin-4-yl]benzenecarbonitrile], the IC50 was at most 1000 nM.

As to `N#Cc1ccc(-c2ccnc(NCCNc3ccccn3)n2)cc1` [4-(2-{[2-(2-pyridylamino)ethyl]amino}pyrimidin-4-yl)benzenecarbonitrile], the half-inhibitory concentration (IC50) is at most 10000 nM.

Consider `O=C(NCc1cc(Cl)cc(Cl)c1)c1ccc(-c2ccnc(NCCNc3ccc([N+](=O)[O-])cn3)n2)cc1` [N-[(3,5-dichlorophenyl)methyl]{4-[2-({2-[(5-nitro(2-pyridyl))amino]ethyl}amino)pyrimidin-4-yl]phenyl}carboxamide], for which the IC50 was at most 10000 nM.

As to `Cc1nccn1-c1cnc(NCCNc2ccc([N+](=O)[O-])c(N)n2)nc1-c1ccc(Cl)cc1Cl`, the IC50 was at most 1000 nM.

Test system in a further data set: not given
Test: not given
Details: not given
One may read the melting point as the temperature, or range, at which the solid turns liquid. Regarding `O=[N+]([O-])c1ccc(NCCNc2nccc(-c3ccc(N4CCOCC4)cc3)n2)nc1` [[4-(4-morpholin-4-ylphenyl)-pyrimidin-2-yl]{2-[(5-nitro(2-pyridyl))amino]ethyl}amine], the melting point is 223 to 225 °C (dec.).
